# Reference: patent US7888285B2, “2,4,6-phenyl substituted cyclic ketoenols” (Bayer CropScience AG, priority 2003, dated 2011)
# Key:
# Type in all cases: in vivo
# Spring barley = experiment: Post-emergence crop plant tolerance, greenhouse experiments with safener pretreatment (mefenpyr)
# Method: (§1) Post-Emergence Crop Plant Tolerance
# (§2) Seeds of monocotyledonous and dicotyledonous weed and crop plants are placed in sandy loam in wood fibre pots or in plastic pots, covered with soil and grown in the greenhouse or, during the vegetation period, in the open outside the greenhouse, under good growth conditions. 2 to 3 weeks after sowing, the test plants are treated in the one- to three-leaf stage. The test compounds, which are formulated as wettable powder (WP) or as a fluid (EC), are sprayed onto the plants and the soil surface at various dosage rates with a water application rate of 300 l/ha (converted), with added wetter (0.2 to 0.3%). 3 to 4 weeks after the treatment of the test plants, the effect of the preparations is scored visually in comparison with untreated controls (herbicidal activity in per cent (%): 100% activity=plants have died, 0% activity=like control plants).
# (§3) If it is additionally desired to test whether safeners are capable of improving the plant tolerance of test substances with regard to the crop plants, the following options for applying the safeners are used: • Prior to application of the test substances, the crop plants are sprayed with safener at a particular application rate per hectare (usually 1 day prior to application of the test substances). • The safener is applied together with the test substance in the form of a tank mix (the amount of safener being indicated in g/ha or as a safener:herbicide ratio).
# (§4) The activity of the safener substance can be assessed in comparison with untreated control plants by comparing the effect of test substances on crop plants which have been treated without and with safener.
# (§5) Results of Greenhouse Experiments With Safener/Pretreatment (Safener Mefenpyr (100 g a.i./ha), One Day Prior to Post-Emergence Treatment With the Herbicide)
# cereals [1] = experiment: Container experiments with cereals outside the greenhouse, herbicide:mefenpyr 1:2 tank mix; conditions: no safener
# Method: as §2, §3, §4
# Container Experiments with Cereals Outside the Greenhouse Herbicide: mefenpyr 1:2 tank mix
# Spring wheat = experiment: Post-emergence crop plant tolerance, greenhouse experiments with safener pretreatment (mefenpyr)
# Method: as §1, §2, §3, §4, §5
# Alopecurus [2] = experiment: Post-emergence test; conditions: greenhouse, 250 g a.i./ha, scored after three weeks
# Method: (§6) To prepare a suitable active compound preparation, 1 part by weight of active compound is mixed with the stated amount of solvent, the stated amount of emulsifier is added, and the concentrate is diluted with water to the desired concentration.
# (§7) Test plants with a height of 5-15 cm are sprayed with the active compound preparation in such a way that the amounts of active compound desired in each case are applied per unit area. The concentration of the spray mixture is chosen in such a way that the amounts of active compound desired in each case are applied in 1 000 1 of water/ha.
# (§8) After three weeks, the degree of damage of the plants is scored in % damage in comparison with the development of the untreated control.
# (§9) The figures denote: • 0% =no effect (like untreated control) • 100% =total destruction
# Avena fatua [3] = experiment: Post-emergence test; conditions: greenhouse, 250 g a.i./ha, scored after three weeks
# Method: as §6, §7, §8, §9
# Echinochloa [4] = experiment: Post-emergence test; conditions: greenhouse, 250 g a.i./ha, scored after three weeks
# Method: as §6, §7, §8, §9
# Setaria [5] = experiment: Post-emergence test; conditions: greenhouse, 250 g a.i./ha, scored after three weeks
# Method: as §6, §7, §8, §9
# Sinapis = experiment: Post-emergence test; conditions: greenhouse, 250 g a.i./ha, scored after three weeks
# Method: as §6, §7, §8, §9
# Alopecurus [6] = experiment: Pre-emergence test; conditions: greenhouse, 250 g a.i./ha, scored after three weeks
# Method: (§10) [table] To prepare a suitable active compound preparation, 1 part by weight of active compound is mixed with the stated amount of solvent, the stated amount of emulsifier is added, and the concentrate is diluted with water to the desired concentration. Seeds of the test plant are sown in normal soil. After approximately 24 hours, the soil is sprayed with the active compound preparation in such a way that the amounts of active compound desired in each case are applied per unit area. The concentration of the spray mixture is chosen in such a way that the amounts of active compound desired in each case are applied in 1 000 1 of water/ha. After three weeks, the degree of damage of the plants is scored in % damage in comparison with the development of the untreated control.
# Avena fatua [7] = experiment: Pre-emergence test; conditions: greenhouse, 250 g a.i./ha, scored after three weeks
# Method: as §10
# Echinochloa [8] = experiment: Pre-emergence test; conditions: greenhouse, 250 g a.i./ha, scored after three weeks
# Method: as §10
# Setaria [9] = experiment: Pre-emergence test; conditions: greenhouse, 250 g a.i./ha, scored after three weeks
# Method: as §10
# cereals [10] = experiment: Greenhouse experiment with cereals with 100 g a.i./ha mefenpyr, post-emergence, evaluation 21 days after application; conditions: 50 g a.i./ha, no safener
# Method: as §2, with “plants). […]” for “plants).”
# (§11) The activity of the safener substance can be assessed in comparison with untreated control plants by comparing the effect of test substances on crop plants which have been treated without and with safener. […]
# [11] = test system: larvae of the mustard beetle (Phaedon cochleariae); experiment: Phaedon larvae test; conditions: 1000 ppm
# Method: [table] To produce a suitable preparation of active compound, 1 part by weight of active compound is mixed with the stated amounts of solvent and emulsifier, and the concentrate is diluted with emulsifier-containing water to the desired concentration. Cabbage leaves (Brassica oleracea) are treated by being dipped into the preparation of active compound of the desired concentration and are infested with the larvae of the mustard beetle (Phaedon cochleariae) while the leaves are still moist.
# cereals [12] = experiment: Container experiments with cereals outside the greenhouse, herbicide + mefenpyr 50 g a.i./ha; conditions: 100 g a.i./ha, no safener
# Method: as §2, with “plants). […]” for “plants).”
# as §11
# [13] = 25 g a.i./ha herbicide, no safener
# [14] = 50 g a.i./ha herbicide, no safener
# [15] = 100 g a.i./ha herbicide, no safener
# [16] = application rate 25 g a.i./ha, without safener
# [17] = application rate 50 g a.i./ha, without safener
# [18] = application rate 100 g a.i./ha, without safener
compound,measurement,setting,value
CCc1cc(Cl)cc(OC)c1C1=C(O)C2(CCC(OC)CC2)OC1=O (mixture of isomers) [Example I-2-a-2],Spring barley observed (%),Spring barley; [13],60%
same,Spring barley observed (%),Spring barley; [14],60%
same,Spring barley observed (%),Spring barley; [15],97%
same,Spring barley observed (%),cereals [1]; 50 g a.i./ha,20%
same,Spring wheat observed (%),cereals [1]; 50 g a.i./ha,95%
CCc1cc(Cl)cc(OC)c1C1=C(OC(=O)C(C)(C)CC)C2(CCC(OC)CC2)OC1=O (mixture of isomers) [Example I-2-b-4],Spring barley observed (%),Spring barley; [15],80%
same,Spring wheat observed (%),Spring wheat; [13],100%
CCc1cc(Cl)cc(OC)c1C1=C(OC(=O)C(C)C)C2(CCC(OC)CC2)OC1=O (mixture of isomers) [Example I-2-b-5],Spring barley observed (%),Spring barley; [13],50%
same,Spring barley observed (%),Spring barley; [14],97%
same,Spring barley observed (%),Spring barley; [15],100%
same,Spring wheat observed (%),Spring wheat; [13],99%
CCc1cc(Cl)cc(OC)c1C1=C(OC(=O)C(C)(C)C)C2(CCC(OC)CC2)OC1=O (mixture of isomers) [Example I-2-b-6],Spring barley observed (%),Spring barley; [13],50%
same,Spring barley observed (%),Spring barley; [14],97%
same,Spring barley observed (%),Spring barley; [15],98%
same,Spring barley observed (%),cereals [1]; 50 g a.i./ha,40%
same,Spring wheat observed (%),cereals [1]; 50 g a.i./ha,100%
CCOC(=O)OC1=C(c2c(CC)cc(Cl)cc2OC)C(=O)N(CC)C1C (racemic) [Example I-1-c-7],Spring barley observed (%),"Spring barley; application rate 13 g a.i./ha, without safener",15%
same,Spring barley observed (%),Spring barley; [16],30%
same,Spring barley observed (%),Spring barley; [17],85%
"CCc1cc(Cl)cc(OC)c1C1=C(OC(=O)C(C)(C)C)C2(CCC(C)CC2)NC1=O (single isomer, unassigned) [Example I-1-b-4]",Spring barley observed (%),cereals [1]; 50 g a.i./ha,60%
CCc1cc(Cl)cc(OC)c1C1=C(O)C(C)(C)NC1=O [Example I-1-a-5],"degree of damage, Alopecurus",Alopecurus [2],100%
same,"degree of damage, Avena fatua",Avena fatua [3],100%
same,"degree of damage, Echinochloa",Echinochloa [4],100%
same,"degree of damage, Setaria",Setaria [5],100%
same,"degree of damage, Sinapis",Sinapis,80%
same,"degree of damage, Alopecurus",Alopecurus [6],90%
same,"degree of damage, Avena fatua",Avena fatua [7],100%
same,"degree of damage, Echinochloa",Echinochloa [8],100%
same,"degree of damage, Setaria",Setaria [9],100%
CCc1cc(Cl)cc(OC)c1C1=C(O)C2(CCCCC2)NC1=O [Example I-1-a-6],"degree of damage, Alopecurus",Alopecurus [2],90%
same,"degree of damage, Avena fatua",Avena fatua [3],100%
same,"degree of damage, Echinochloa",Echinochloa [4],100%
same,"degree of damage, Sinapis",Sinapis,80%
same,Winter barley (%),cereals [10]; winter barley,20%
same,Winter wheat (%),cereals [10]; winter wheat,10%
same,Destruction in % after 7 d,[11],90%
CCc1cc(Cl)cc(OC)c1C1=C(O)C2(CCCCC2)OC1=O [Example I-2-a-1],Spring barley observed (%),Spring barley; [16],10%
same,Spring barley observed (%),Spring barley; [17],15%
same,Spring barley observed (%),Spring barley; [18],20%
same,Spring wheat observed (%),Spring wheat; [16],20%
same,Spring wheat observed (%),Spring wheat; [17],20%
same,Spring wheat observed (%),Spring wheat; [18],30%
CCc1cc(Cl)cc(OC)c1C1=C(OC(=O)C(C)(C)C)C2(CCCCC2)OC1=O [Example I-2-b-1],Spring barley observed (%),Spring barley; [14],10%
same,Spring barley observed (%),Spring barley; [15],20%
same,Spring wheat observed (%),Spring wheat; [13],20%
same,Spring wheat observed (%),Spring wheat; [14],40%
same,Spring wheat observed (%),Spring wheat; [15],60%
same,Spring barley observed (%),cereals [1]; 100 g a.i./ha,20%
same,Spring wheat observed (%),cereals [1]; 100 g a.i./ha,30%
CCOC(=O)OC1=C(c2c(CC)cc(Cl)cc2OC)C(=O)OC12CCCCC2 [Example I-2-c-1],Spring wheat observed (%),Spring wheat; [14],20%
same,Spring wheat observed (%),Spring wheat; [15],30%
same,Spring barley observed (%),cereals [1]; 100 g a.i./ha,15%
same,Spring wheat observed (%),cereals [1]; 100 g a.i./ha,40%
same,Spring barley observed (%),cereals [12]; spring barley,50%
same,Spring wheat observed (%),cereals [12]; spring wheat,65%
